Reference: patent US20080287480A1, “Therapeutic Combination Comprising a Nmda Receptors Blocker and a Narcotic Analgesic Substance” (Chiesi Farmaceutici S.p.A., priority 2005, published 2008)
Like-named read-outs stand apart in the source and are kept apart here.

Key:
Neuropathic rats [1] = test: Mechanical hyperalgesia (analgesymeter, Randall method) in chronic constriction injury model of neuropathic pain; type: in vivo, rat; conditions: mean ± s.e.m.; CHF3381 30 mg/kg p.o., morphine 0.1 mg/kg s.c., alone or combined; cut-off 500 g; vehicle 105.7±8.2 g
Method: (§1) The animal model of chronic pain was the same of Example 1.
Nerve injured rats developed mechanical hyperalgesia […]. Indeed, in these animals the mean paw threshold was decreased to about 110 g on the ligated side compared to the contralateral side (about 350 g; P<0.01).
Mechanical hyperalgesia was assessed in neuropathic rats by using an analgesymeter according to the method reported in Randall L O et al (Arch Int Pharmacodyn Ther 1957, 111, 409-419). Mechanical nociceptive thresholds were evaluated by measuring paw withdrawal thresholds to an increasing pressure stimulus applied to the distal portion of the plantar surface of the hind paw. The site of the stimulation was on area of the hind paw between the pads at the base of the third and forth digit. A cut-off was set at 500 g to prevent any tissue damage and the endpoint was taken as a complete paw withdrawal.

mice = conditions: mean ± s.e.m.
Method: The animal model of inflammatory was a slight modification of the mouse paw formalin test originally described by Wheeler-Aceto H et al in Psychopharmacology 104, 35-44 (1991). Before formalin injection, mice were placed individually into clear plastic cylinders. After adaptation to the cage, 20 μl of 1% formalin was injected into the plantar surface of the left hind paw. Morphine was administered 30 min before formalin injection.
Mice, divided randomly into eight groups (13-16 animals/group), received treatment once daily for 4 days as follows: groups g1 and g2 received saline, 10 ml/kg i.p.; groups g3 and g4 received morphine 50 mg/kg i.p.; group g5 received morphine 50 mg/kg and CHF3381 30 mg/kg i.p.; group g6 received morphine 50 mg/kg and CHF3381 60 mg/kg i.p. On day 5, the mice received saline (g1 and g3), or morphine 6 mg/kg, i.p. (g2, g4, g5 and g6).
The amount of time, in seconds, the animals spent licking and flinching the injected paw from 10 to 40 min after formalin injection, was used as measurement of pain intensity.
The level of significance was set at P<0.05.

Neuropathic rats [2] = test: Cold allodynia (chilled metal floor) in chronic constriction injury model of neuropathic pain; type: in vivo, rat; conditions: mean ± s.e.m.; 60 minutes after treatment; 5±1° C. floor; CHF3381 30 mg/kg p.o., morphine 0.1 mg/kg s.c., alone or combined; vehicle 2.90±0.41 s
Method: as §1
Neuropathic rats were placed upon a metal floor chilled by an underlying water bath (5±1° C.) for a maximum of 20 s. The animals responded to the contact with the cold surface by lifting the paw on the ligated side off the floor. […] For each set of experiments, animals were pre-screened twice with 20 min interval between tests, in order to select animals displaying clear signs of allodynia, i.e. animals with a paw withdrawal latency on the ligated side of <10 s in both trials. […] The latency to paw withdrawal was then determined at 60 minutes after the administration of vehicle, CHF3381 (30 mg/kg p.o.) alone, morphine (0.1 mg/kg s.c.) alone or their combination.

Nerve injured rats = test: Mechanical allodynia (Electronic Von Frey) in chronic constriction injury model of neuropathic pain; type: in vivo, rat; conditions: MPE ± s.e.m.; 60 minutes after administration; CHF3381 30 mg/kg p.o., morphine 0.1 mg/kg s.c., alone or combined; vehicle 0.15±0.06
Description: The animal model of chronic pain was a slight modification of the chronic constriction injury model of neuropathic pain originally described by Bennett G J et al in Pain 1988, 33, 87-107.
Nerve injured rats were placed on an elevated screen in a clear testing chamber and allowed to acclimate to the testing environment before any measurements were taken. The mechanical stimulus was delivered underneath to the plantar surface of the left hind paw of the rat by using the automated testing device Electronic Von Frey.
A steel rod was pushed against the hind paw with ascending force. The ramping of the force went from 0 to 50 g over a 20 s period. When the animal withdrew its hind paw, the mechanical stimulus was automatically withdrawn and the force at which the animal withdrew its paw was recorded. To quantify the mechanical sensitivity of the hind paws, withdrawal thresholds were taken from five consecutive trials with at least 10 s between each trial. The withdrawal threshold was taken to be the mean of the five trials (baseline value). […]
The values are expressed as Maximum Possible Effect (MPE)±s.e.m
The MPE value was calculated as follow: MPE=(PDR−IBR)/(CBR−IBR), where PDR is the post drug response of the ipsilateral paw, IBR is the ipsilateral paw baseline response and CBR is the contralateral paw baseline response. […]

## CN1CC[C@]23c4c5ccc(O)c4O[C@H]2[C@@H](O)C=C[C@H]3[C@H]1C5 [morphine]
Neuropathic rats [1]
  Paw withdrawal threshold (mechanical hyperalgesia): 105.8 ± 6.0 g
mice; g2: saline i.p. days 1-4, morphine 6 mg/kg i.p. day 5, saline control g1 119.9±17.0
  mean licking time, 10 to 40 min after formalin injection: 65.9 ± 18.3 s
mice; g3: morphine 50 mg/kg i.p. days 1-4, saline i.p. day 5
  mean licking time, 10 to 40 min after formalin injection: 143.9 ± 19.2 s
mice; g4: morphine 50 mg/kg i.p. days 1-4, morphine 6 mg/kg i.p. day 5
  licking time, 10 to 40 min after formalin injection: 112.1 ± 13.4 s
Neuropathic rats [2]
  mean paw withdrawal latency (cold allodynia): 5.17 ± 0.86 s
Nerve injured rats
  Maximum Possible Effect (MPE) on paw withdrawal threshold to mechanical stimulation: 0.21±0.07
